Test results taken from patent EP0514268A1, “Substituted amino acid azetidinyl pyridone derivatives, their preparation and use as medicines” (LABORATORIOS DEL DR. ESTEVE, S.A., priority 1991, dated 1992).
Converted amounts (≈) assume the structure as drawn.

Columns and labels:
Staph. aureus ATCC 25178 = test: Antimicrobial activity, agar dilution; assay type: cell-based, Staphylococcus aureus; conditions: Staphylococcus aureus, ATCC25178, 20 h, Agar Dextrose dilutions, 37°C, 20 heures, read-out: Activité pharmacologique antimicrobienne (concentrations)
Text: (§1) L'activité pharmacologique antimicrobienne de ces composés a été étudiée selon les références exposées ci-dessous.
(§2) Activité pharmacologique antimicrobienne : G.L. Daquet et Y.A. Chabbect, techniques en bactériologie, Vol. 3, Flammarion Médecine-Sciences, Paris 1972, et W.B. Hugo et A.D. Rusell, Pharmaceutical Microbiology, Blackwell Scientific Publications, London, 1977.
(§3) Milieu de culture et solvant : Agar d'antibiotiques n° 1 (Oxoid CM 327) Bouillon de triptone-soja (Oxoid CM 129) Solution Physiologique Ringer 1/4 (Oxoid BR 52) Agar Dextrose (BBL 11165)
(§4) Microorganismes : "Bacillus subtilis" ATCC 6633 "Citrobacter freundii" ATCC 112606 "Enterobacter aerogenes" ATCC 15038 "Enterobacter cloacae" ATCC 23355 "Bacillus cereus" ATCC 1178 "Escherichia coli" ATCC 10799 "Escherichia coli" ATCC 23559 "Klebsiella pneumoniae" ATCC 10031 "Proteus vulgaris" ATCC 8427 "Morg. morganii" ATCC 8019 "Pseudomonas aeruginosa" ATCC 9721 "Pseudomonas aeruginosa" ATCC 10145 "Salmonella typhimurium" ATCC 14028 "Salmonella typhimurium" ATCC 6539 "Serratia marcescens" ATCC 13880 "Shigella flexnerii" ATCC 12022 "Staphylococcusepidermis" ATCC 155-1 "Staphylococcus aureus" ATCC 25178 "Streptococcus faecalis" ATCC 10541.
(§5) Chacun des microorganismes est ensemencé par strie dans des tubes d'Agar d'antibiotiques n° 1, et mis en incubation pendant 20 heures à 37°C. Ensuite, on prend une anse de culture, on ensemence dans un bouillon de Triptone-soja et on incube pendant 20 heures à 37°C. On dilue à 1/4 la culture obtenue avec une solution physiologique Ringer, de façon à obtenir une suspension normalisée de […] pour chaque organisme.
(§6) A partir d'une solution de 100 µg/ml, chaque produit est dilué dans l'Agar Dextrose (préalablement fondu et maintenu à 50°C) par dilutions successives de façon à obtenir les concentrations suivantes : 64-32-16-8-4-2-1-0,5-0,25-0,125 µg de dérivé/ml du milieu.
(§7) Postérieurement, chaque concentration de chaque produit est répartie dans des boîtes de Petri de 10 cm de diamètre, à raison de 10 ml de milieu par boîte et autant de boîtes que de microorganismes à tester.
(§8) Une fois le milieu refroidi, les boîtes sont ensemencées avec les inoculations à raison de 0,4 ml d'inoculation par boîte. On les étend avec une anse de Driglasky et on recueille le surnageant. Les boîtes ensemencées sont incubées à 37°C pendant 20 heures.
(§9) Les résultats obtenus sont décrits dans les tableaux suivants. Les concentrations sont données en µg/ml.

[1] = test system: Serr. marcescens ATCC 13880; test: Antimicrobial activity, agar dilution; assay type: cell-based, Serratia marcescens; conditions: Serratia marcescens, ATCC13880, 20 h, Agar Dextrose dilutions, 37°C, 20 heures, read-out: Activité pharmacologique antimicrobienne (concentrations)
Text: as §1, §2, §3, §4, §5, §6, §7, §8, §9

[2] = test system: Ent. aerogenes ATCC 15038; test: Antimicrobial activity, agar dilution; assay type: cell-based, Enterobacter aerogenes; conditions: Klebsiella aerogenes, ATCC15038, 20 h, Agar Dextrose dilutions, 37°C, 20 heures, read-out: Activité pharmacologique antimicrobienne (concentrations)
Text: as §1, §2, §3, §4, §5, §6, §7, §8, §9

[3] = test system: Kleb. pneumoniae ATCC 10031; test: Antimicrobial activity, agar dilution; assay type: cell-based, Klebsiella pneumoniae; conditions: Klebsiella pneumoniae, ATCC10031, 20 h, Agar Dextrose dilutions, 37°C, 20 heures, read-out: Activité pharmacologique antimicrobienne (concentrations)
Text: as §1, §2, §3, §4, §5, §6, §7, §8, §9

Ent. cloacae ATCC 23355 = test: Antimicrobial activity, agar dilution; assay type: cell-based, Enterobacter cloacae; conditions: Enterobacter cloacae, ATCC23355, 20 h, Agar Dextrose dilutions, 37°C, 20 heures, read-out: Activité pharmacologique antimicrobienne (concentrations)
Text: as §1, §2, §3, §4, §5, §6, §7, §8, §9

[4] = test system: Strep. faecalis ATCC 10541; test: Antimicrobial activity, agar dilution; assay type: cell-based, Streptococcus faecalis; conditions: Enterococcus faecalis, ATCC10541, 20 h, Agar Dextrose dilutions, 37°C, 20 heures, read-out: Activité pharmacologique antimicrobienne (concentrations)
Text: as §1, §2, §3, §4, §5, §6, §7, §8, §9

[5] = test system: Citr. freundii ATCC 11606; test: Antimicrobial activity, agar dilution; assay type: cell-based, Citrobacter freundii; conditions: Citrobacter freundii, ATCC11606, 20 h, Agar Dextrose dilutions, 37°C, 20 heures, read-out: Activité pharmacologique antimicrobienne (concentrations)
Text: as §1, §2, §3, §4, §5, §6, §7, §8, §9

[6] = test system: Staph. epidermidis ATCC 155-1; test: Antimicrobial activity, agar dilution; assay type: cell-based; conditions: Staphylococcus epidermidis, ATCC155, 20 h, Agar Dextrose dilutions, 37°C, 20 heures, read-out: Activité pharmacologique antimicrobienne (concentrations)
Text: as §1, §2, §3, §4, §5, §6, §7, §8, §9

[7] = test system: Proteus vulgaris ATCC 8427; test: Antimicrobial activity, agar dilution; assay type: cell-based; conditions: Proteus vulgaris, ATCC8427, 20 h, Agar Dextrose dilutions, 37°C, 20 heures, read-out: Activité pharmacologique antimicrobienne (concentrations)
Text: as §1, §2, §3, §4, §5, §6, §7, §8, §9

[8] = test system: Bacillus subtilis ATCC 6633; test: Antimicrobial activity, agar dilution; assay type: cell-based; conditions: ATCC6633, 20 h, Agar Dextrose dilutions, 37°C, 20 heures, read-out: Activité pharmacologique antimicrobienne (concentrations)
Text: as §1, §2, §3, §4, §5, §6, §7, §8, §9

Morg. morganii ATCC 8019 = test: Antimicrobial activity, agar dilution; assay type: cell-based; conditions: Morganella morganii, ATCC8019, 20 h, Agar Dextrose dilutions, 37°C, 20 heures, read-out: Activité pharmacologique antimicrobienne (concentrations)
Text: as §1, §2, §3, §4, §5, §6, §7, §8, §9

[9] = test system: Escherichia coli ATCC 10799; test: Antimicrobial activity, agar dilution; assay type: cell-based; conditions: Escherichia coli, ATCC10799, 20 h, Agar Dextrose dilutions, 37°C, 20 heures, read-out: Activité pharmacologique antimicrobienne (concentrations)
Text: as §1, §2, §3, §4, §5, §6, §7, §8, §9

[10] = test system: Bacillus cereus ATCC 11778; test: Antimicrobial activity, agar dilution; assay type: cell-based; conditions: Bacillus cereus, ATCC11778, 20 h, Agar Dextrose dilutions, 37°C, 20 heures, read-out: Activité pharmacologique antimicrobienne (concentrations)
Text: as §1, §2, §3, §4, §5, §6, §7, §8, §9

[11] = test system: Shigella flexnerii ATCC 12022; test: Antimicrobial activity, agar dilution; assay type: cell-based; conditions: ATCC12022, 20 h, Agar Dextrose dilutions, 37°C, 20 heures, read-out: Activité pharmacologique antimicrobienne (concentrations)
Text: as §1, §2, §3, §4, §5, §6, §7, §8, §9

Ps. aeruginosa ATCC 9721 = test: Antimicrobial activity, agar dilution; assay type: cell-based; conditions: Pseudomonas aeruginosa, ATCC9721, 20 h, Agar Dextrose dilutions, 37°C, 20 heures, read-out: Activité pharmacologique antimicrobienne (concentrations)
Text: as §1, §2, §3, §4, §5, §6, §7, §8, §9

[12] = test system: Ps. aeruginosa ATCC 10145; test: Antimicrobial activity, agar dilution; assay type: cell-based; conditions: Pseudomonas aeruginosa, ATCC10145, 20 h, Agar Dextrose dilutions, 37°C, 20 heures, read-out: Activité pharmacologique antimicrobienne (concentrations)
Text: as §1, §2, §3, §4, §5, §6, §7, §8, §9

Sal. typhi ATCC 6539 = test: Antimicrobial activity, agar dilution; assay type: cell-based; conditions: Salmonella enterica, 20 h, read-out: Activité pharmacologique antimicrobienne (concentrations)
Text: as §1, §2, §3, §4, §5, §6, §7, §8, §9

[13] = test system: Escherichia coli ATCC 23559; test: Antimicrobial activity, agar dilution; assay type: cell-based; conditions: Escherichia coli, ATCC23559, 20 h, Agar Dextrose dilutions, 37°C, 20 heures, read-out: Activité pharmacologique antimicrobienne (concentrations)
Text: as §1, §2, §3, §4, §5, §6, §7, §8, §9

[14] = test system: Sal. typhimurium ATCC 14028; test: Antimicrobial activity, agar dilution; assay type: cell-based, Salmonella typhimurium; conditions: Salmonella enterica, 20 h, Agar Dextrose dilutions, 37°C, 20 heures, read-out: Activité pharmacologique antimicrobienne (concentrations)
Text: as §1, §2, §3, §4, §5, §6, §7, §8, §9

[15] = Solubility in water and at pH 7.4; assay type: physicochemical
Text: Un grand nombre des composés de l'invention manifestent une augmentation de la solubilité dans l'eau ainsi que de la solubilité à pH 7,4 lorsqu'on compare avec les composés de référence. L'augmentation de solubilité au pH physiologique peut favoriser l'absorption du produit et la solubilité élevée dans l'eau permet l'administration du composé par voie parentérale.

## CCn1cc(C(=O)O)c(=O)c2cnc(N3CCNCC3)nc21 [Acide pipémidique, reference compound]
Staph. aureus ATCC 25178
  MIC: 64 µg/mL (≈ 211 µM)
[1]
  MIC: 16 µg/mL (≈ 52.7 µM)
[2]
  MIC: 32 µg/mL (≈ 105 µM)
[3]
  MIC: 2 µg/mL (≈ 6.59 µM)
Ent. cloacae ATCC 23355
  MIC: 8 µg/mL (≈ 26.4 µM)
[4]
  MIC: > 64 µg/mL
[5]
  MIC: 4 µg/mL (≈ 13.2 µM)
[6]
  MIC: 64 µg/mL (≈ 211 µM)
[7]
  MIC: 16 µg/mL (≈ 52.7 µM)
[8]
  MIC: 8 µg/mL (≈ 26.4 µM)
Morg. morganii ATCC 8019
  MIC: 8 µg/mL (≈ 26.4 µM)
[9]
  MIC: 16 µg/mL (≈ 52.7 µM)
[10]
  MIC: 16 µg/mL (≈ 52.7 µM)
[11]
  MIC: 4 µg/mL (≈ 13.2 µM)
Ps. aeruginosa ATCC 9721
  MIC: 32 µg/mL (≈ 105 µM)
[12]
  MIC: 32 µg/mL (≈ 105 µM)
Sal. typhi ATCC 6539
  MIC: 4 µg/mL (≈ 13.2 µM)
[13]
  MIC: 2 µg/mL (≈ 6.59 µM)
[14]
  MIC: 8 µg/mL (≈ 26.4 µM)

## C[C@H]1[C@H](N)CN1c1nc2c(cc1F)c(=O)c(C(=O)O)cn2C1CC1 [Exemple 1a, acide 7-[(2S,3R)-2-méthyl-3-amino-1-azétidinyl]-1-cyclopropyl-6-fluoro-1,4-dihydro-4-oxo-1,8-naphtyridine-3-carboxylique, reference compound]
[15]; pH 7
  solubility: 16.5 µg/mL (≈ 49.6 µM)
[15]; water
  solubility: 23 µg/mL (≈ 69.2 µM)

## NC1CN(c2nc3c(cc2F)c(=O)c(C(=O)O)cn3-c2ccc(F)cc2F)C1 [Exemple 1b, acide 7-(3-amino-1-azétidinyl)-1-(2,4-difluorophényl)-6-fluoro-1,4-dihydro-4-oxo-1,8-naphtyridine-3-carboxylique, reference compound]
[15]; pH 7
  solubility: 3.7 µg/mL (≈ 9.48 µM)
[15]; water
  solubility: 3 µg/mL (≈ 7.69 µM)
